Data taken from US10028956B2, “Methods of treating various cancers using an AXL/cMET inhibitor in combination with other agents” (Ignyta, Inc., priority 2013, dated 2018).
Marks after values point to notes of the source that are not given here.

Assays:
[1] = test system: CTG-0157 primary NSCLC human TumorGraft; assay: NSCLC TumorGraft model CTG-0157; type: in vivo, mice; conditions: CTG-0157, 14 days
Method: Methods (for the experiments shown in FIGS. 10 and 11) • Female immunocompromised nu/nu mice (Harlan) between 6-9 weeks of age were housed on irradiated papertwist-enriched ⅛″ corncob bedding (Sheperd) in individual HEPA ventilated cages (Innocage® IVC, Innovive USA) on a 12-hour light-dark cycle at 68-74° F. (20-23° C.) and 30-70% humidity. Animals were fed water ad libitum (reverse osmosis, 2 ppm Cl2) and an irradiated Test rodent diet (Teklad 2919) consisting of 19% protein, 9% fat, and 4% fiber. • Tumor Models: Champions TumorGraft models of NSCLC are owned by Champions Oncology. In this study, animals were implanted unilaterally on the right flank with tumor fragments harvested from host animals. […] Erlotinib (manufacturer: OSI Pharmaceuticals; National Drug Code: 50242-062-01; Lot #: US0002) was formulated using 100% PEG-400 as the vehicle according to manufacturer's specifications.
Efficacy measurements: Beginning Day 0, tumor dimensions were measured twice weekly by digital caliper (Fowler Ultra-Cal IV) and data including individual and mean estimated tumor volumes (Mean TV±SEM) were recorded for each group; tumor volume was calculated using the formula TV=width^2×length×0.52. At study completion, percent tumor growth inhibition (% TGI) values were calculated and reported for each treatment group (T) versus control (C) using initial (i) and final (f) tumor measurements by the formula: % TGI=1−Tf−Ti/Cf−C; single agent or combination therapies resulting in a TGI>50 at study completion are considered active in the tested model at the evaluated treatment regimen according to NCI guidelines. […] If the PR persisted until study completion, percent tumor regression (% TR) was determined using the formula: % TR=1−Tf/Ti×100; a mean value was calculated if multiple PR mice occurred in one group. […] Statistical differences in tumor volume were determined using a two-tailed One-Way Analysis of Variance (ANOVA) followed by the Dunett's multiple comparisons test comparing treated groups with control and combinations with standard agent alone when possible. […]

[2] = target: c-Met (Homo sapiens, UniProt P08581); assay: Cellular c-Met inhibition in GTL-16 cells; type: cell-based; parameters: endogenous in cells; host or cells: GTL-16 human gastric carcinoma cells
c-Met, sequence (P08581 25-1390): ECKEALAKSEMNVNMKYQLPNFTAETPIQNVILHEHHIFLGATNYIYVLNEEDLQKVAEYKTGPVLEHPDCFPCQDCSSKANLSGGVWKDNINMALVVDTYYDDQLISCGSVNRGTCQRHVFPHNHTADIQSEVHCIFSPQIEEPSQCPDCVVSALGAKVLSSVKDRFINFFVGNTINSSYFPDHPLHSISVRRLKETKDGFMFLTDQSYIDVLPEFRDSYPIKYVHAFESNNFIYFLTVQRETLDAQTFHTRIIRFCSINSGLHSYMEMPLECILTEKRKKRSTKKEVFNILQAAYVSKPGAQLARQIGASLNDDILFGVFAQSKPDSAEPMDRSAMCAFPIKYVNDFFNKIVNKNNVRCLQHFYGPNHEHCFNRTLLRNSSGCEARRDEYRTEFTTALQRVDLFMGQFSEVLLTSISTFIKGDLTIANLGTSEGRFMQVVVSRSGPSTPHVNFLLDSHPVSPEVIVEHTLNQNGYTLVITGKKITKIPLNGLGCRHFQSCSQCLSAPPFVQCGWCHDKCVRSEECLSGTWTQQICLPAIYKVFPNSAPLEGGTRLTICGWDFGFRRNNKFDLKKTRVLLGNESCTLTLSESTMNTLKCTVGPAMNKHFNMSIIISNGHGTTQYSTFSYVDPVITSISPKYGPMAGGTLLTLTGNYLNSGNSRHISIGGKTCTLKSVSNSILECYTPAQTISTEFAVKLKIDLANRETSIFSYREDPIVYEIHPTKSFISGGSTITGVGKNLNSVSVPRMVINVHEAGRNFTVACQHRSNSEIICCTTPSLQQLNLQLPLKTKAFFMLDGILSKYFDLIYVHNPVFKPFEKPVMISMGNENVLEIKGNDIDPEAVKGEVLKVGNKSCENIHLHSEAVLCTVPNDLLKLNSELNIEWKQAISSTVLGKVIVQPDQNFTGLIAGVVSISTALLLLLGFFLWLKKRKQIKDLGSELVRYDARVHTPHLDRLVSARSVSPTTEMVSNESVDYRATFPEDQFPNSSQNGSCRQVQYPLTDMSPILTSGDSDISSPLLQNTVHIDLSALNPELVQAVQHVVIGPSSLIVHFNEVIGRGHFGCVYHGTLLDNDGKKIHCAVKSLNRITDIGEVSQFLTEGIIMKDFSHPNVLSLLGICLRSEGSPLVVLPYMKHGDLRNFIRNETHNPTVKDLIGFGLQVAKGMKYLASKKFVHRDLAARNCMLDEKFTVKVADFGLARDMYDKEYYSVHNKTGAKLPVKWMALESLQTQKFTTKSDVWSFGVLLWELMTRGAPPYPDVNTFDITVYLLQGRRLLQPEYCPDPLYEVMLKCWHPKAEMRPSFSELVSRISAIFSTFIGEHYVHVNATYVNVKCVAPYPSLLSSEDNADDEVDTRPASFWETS

[3] = test system: NIH3T3/AXL tumor xenografts; assay: Anti-tumor efficacy in NIH3T3/AXL tumor xenografts; type: in vivo, mice; conditions: 0.3, 1 or 10 mg/kg PO qd, all doses tested
Method: The engineered NIH3T3/AXL cell line was generated as follows. The human AXL cDNA was subcloned into the pQCXIP vector and the sequences were confirmed by sequencing at Children's Hospital of Philadelphia. PT67 cells (5×10^5) in 4 mL DMEM+10% FBS were seeded in each well of 6-well plates (Cat^#353046, Becton Dickinson, Franklin Lakes, N.J.) and cultured at 37° C. in a humidified incubator with 5% CO2 overnight. The cells were transfected with 2 μg of pQCXIP-AXL with Lipofectamine™ 2000 (Cat#52887, Invitrogen, Carlsbad, Calif.) transfection reagent per the manufacturer's protocol. In brief, the DNA in 500 μL culture media was mixed with 500 μL media containing 20 μL Lipofectamine™ 2000 transfection reagent, and the mixture was incubated at room temperature for 20 minutes. […]
NIH3T3/AXL cells were collected and resuspended in DMEM medium at density of 5×10^7/mL. […] The mice were monitored and the tumor sizes were measured. […] The length (L) and width (W) of each tumor were measured with a vernier caliper and the mouse body weight was determined every two to three days. Tumor volumes were calculated with the formula of 0.5236*L*W*(L+W)/2. […] Plasma and tumor samples were obtained at 2 hours post final dose at each dose level, and the compound levels in plasma and tumor lysates were measured by LC-MS/MS.

[4] = test system: 298 kinases; assay: Kinome selectivity against 298 kinases; type: biochemical

## COc1cc2nccc(Oc3ccc(NC(=O)c4cn(C(C)C)c(=O)n(-c5ccc(F)cc5)c4=O)cc3F)c2cc1OC [CEP-40783, 3-(4-Fluorophenyl)-1-isopropyl-2,4-dioxo-1,2,3,4-tetrahydropyrimidine-5-carboxylic acid [4-(6,7-dimethoxyquinolin-4-yloxy)-3-fluorophenyl]-amide]
[1]; 10 mg/kg po/qd
  % Tumor Growth Inhibition: 3%
[1]; 30 mg/kg po/qd
  % Tumor Growth Inhibition: 85%*†
[2]
  IC50: 6 nM
[3]
  anti-tumor efficacy (tumor volume): complete tumor regressions
[4]
  S90 (fraction of kinases showing >90% inhibition at 1 μM): 0.04
